How the values were obtained:
[1] = tested on: sebaceous glands in the ears of male Syrian hamsters; conditions: topical application, Malloy, V. L. et al. (1989); cited from earlier work
[2] = tested on: cells; conditions: Abe, E. et al. (1981); cited from earlier work
[3] = tested on: interleukins; conditions: Muller, K. et al. (1988); cited from earlier work
[4] = tested on: U937 human histiocytic leukemia cells; assay: antiproliferative effect in U937 human histiocytic leukemia cells relative to 1α,25(OH)2 D3; type: cell-based; conditions: number greater than 1 = higher antiproliferative activity
Method: ^a This test determines the antiproliferative effect in U937 human
histiocytic leukemia cells of the compound relative to
1α,25(OH)2 D3. A number greater than 1 indicates a higher
antiproliferative activity of the compound in question when compared to
1α,25(OH)2 D3. The test was performed exactly as
described: L. Binderup and E. Bramm, Biochem. Pharmacol., 37, (1988)

[5] = tested on: calcium metabolism; assay: calciuric effect in rats relative to 1α,25(OH)2 D3 (calcium metabolism); type: in vivo; conditions: number smaller than 1 = less change in calcium excretion
Excerpt: ^b This test determines the calciuric effect in rats of the compound
relative to 1α,25(OH)2 D3. A number smaller than 1
indicates less change in calcium excretion of the compound in question
when compared to 1α,25(OH)2 D3. The test was, as above,
performed exactly as described: L. Binderup and E. Bramm, Biochem.

[6] = acid stability: approximate half life in conc. ^2 HCl/^2 H2 O in C^2 H3 CN determined by ^1 H NMR; type: physicochemical; conditions: dcl/d2o in cd3cn; 10 μl conc. ^2 HCl/^2 H2 O in C^2 H3 CN (0.6 ml), 25° C., ^1 H NMR at 500 MHz
Method: | ^c In this test, the compound was treated with a mixture of 10 μl | conc. ^2 HCl/^2 H2 O in C^2 H3 CN (0.6 ml) at | 25° C. and the approximate half life was determined by ^1 H NM | at 500 MHz.

C=C1/C(=C\C=C2/CCC[C@]3(C)[C@@H]([C@H](C)CCCC(C)(C)O)CC[C@@H]23)C[C@@H](O)C[C@@H]1O [1,25(OH)2 D3, 1α,25-dihydroxy-vitamin D3]
size of sebaceous glands [1]: reduces the size of sebaceous glands
cell differentiation and proliferation [2]: able to stimulate the differentiation of cells and inhibit excessive cell proliferation
effects and/or production of interleukins [3]: influences the effects and/or production of interleukins

C=C1/C(=C\C=C2/CCC[C@]3(C)[C@@H]([C@H](C)/C=C/[C@@H](O)C4CC4)CC[C@@H]23)C[C@@H](O)C[C@@H]1O [Calcipotriol]
U937, inhib. of prolifer. [4]: 1
Calcium metabolism (calciuric effect) [5]: 0.005

C=C1/C(=C\C=C2/CCC[C@]3(C)[C@@H]([C@H](C)/C=C/C#CC(O)(CC)CC)CC[C@@H]23)C[C@@H](O)C[C@@H]1O [Compound 101, 1(S),3(R)-Dihydroxy-20(R)-(5-ethyl-5-hydroxy-hept-1(E)-en-3-yn-1-yl)-9,10-seco-pregna-5(Z),7(E),10(19)-triene]
U937, inhib. of prolifer. [4]: 89
Calcium metabolism (calciuric effect) [5]: 0.2

C=C1/C(=C\C=C2/CCC[C@]3(C)[C@@H]([C@@H](C)/C=C/C#CC(O)(CC)CC)CC[C@@H]23)C[C@@H](O)C[C@@H]1O [Compound 102, 1(S),3(R)-Dihydroxy-20(S)-(5-ethyl-5-hydroxy-hept-1(E)-en-3-yn-1-yl)-9,10-seco-pregna-5(Z),7(E),10(19)-triene]
U937, inhib. of prolifer. [4]: 1.1
Calcium metabolism (calciuric effect) [5]: 0.015
half-life [6]: 15 to 30 min

C=C1/C(=C\C=C2/CCC[C@]3(C)[C@@H]([C@H](C)/C=C/C=C/C(O)(CC)CC)CC[C@@H]23)C[C@@H](O)C[C@@H]1O [EB1089, 1(S),3(R)-Dihydroxy-20(R)-(5'-ethyl-5'-hydroxy-hepta-1' (E),3'(E)-dien-1'-yl)-9,10-secopregna-5(Z),7(E), 10(19)-triene]
U937, inhib. of prolifer. [4]: 68
Calcium metabolism (calciuric effect) [5]: 0.4
half-life [6]: < 5 min

Source: patent US5716945A, “Vitamin D analogues” (Leo Pharmaceutical Products Ltd. A/S (L.o slashed.vens …, priority 1993, dated 1998)
